# Key:
# Format in all cases: cell-based
# [1] = tested on: Streptococcus pyogenes 1079; assay: MIC, microtiter broth dilution (NCCLS M100-S14), S. pyogenes 1079 (ermB); conditions: Streptococcus pyogenes 1079
# Outline: (§1)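 Stock solutions of 40 mg/ml in DMSO were used. MIC values came from microtiter-tray broth dilution following NCCLS M100-S14 guidelines.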
# [2] = tested on: Haemophilus influenzae 1218; assay: MIC, microtiter broth dilution (NCCLS M100-S14), H. influenzae 1218 (susceptible); conditions: Haemophilus influenzae 1218
# Outline: as §1
# [3] = tested on: Streptococcus pneumoniae 1175; conditions: Streptococcus pneumoniae 1175; microtiter broth dilution
# Outline: as §1
# [4] = tested on: Streptococcus pneumoniae 1095; conditions: Streptococcus pneumoniae 1095; microtiter broth dilution
# Outline: as §1
# [5] = tested on: Streptococcus pneumoniae 1016; assay: MIC, microtiter broth dilution (NCCLS M100-S14), S. pneumoniae 1016 (susceptible); conditions: Streptococcus pneumoniae 1016
# Outline: as §1
SMILES,MIC S. pyogenes 1079 [1] [µg/mL],MIC H. influenzae 1218 [2] [µg/mL],MIC S. pneumo. 1175 [3] [µg/mL],MIC S. pneumo. 1095 [4] [µg/mL],MIC S. pneumo. 1016 [5] [µg/mL]
"CC[C@H]1OC(=O)[C@H](C)[C@@H](OC(=O)N2CCCC2c2cccc(F)c2)[C@H](C)[C@@H](O[C@@H]2O[C@H](C)C[C@H](N(C)C)[C@H]2O)[C@](C)(OC)C[C@@H](C)C(=O)[C@H](C)[C@H]2N(CC3CN(Cc4c[nH]c5ncccc45)C3)C(=O)O[C@]12C (stereo partly shown) [Example 5.05, 3-descladinosyl-11,12-dideoxy-6-O-methyl-12,11-(oxycarbonyl-(1-((1H-pyrrolo[2,3-b]pyridin-3-yl)-methyl)-(azetidin-3-yl)-methyl)-imino)-3-((2-(3-fluorophenyl)-pyrrolidine)-1-carbonyl)-erythromycin A]",4,8,0.5,2,<0.06
"CC[C@H]1OC(=O)[C@H](C)[C@@H](OC(=O)N2CCCC2c2cccc(F)c2)[C@H](C)[C@@H](O[C@@H]2O[C@H](C)C[C@H](N(C)C)[C@H]2O)[C@](C)(OC)C[C@@H](C)C(=O)[C@H](C)[C@H]2N(CC3CN(Cc4c[nH]c5ncccc45)C3)C(=O)O[C@]12C (stereo partly shown) [Example 5.06, 3-descladinosyl-11,12-dideoxy-4-O-methyl-12,11-(oxycarbonyl-(1-((1H-pyrrolo[2,3-b]pyridin-3-yl)-methyl)-(azetidin-3-yl)-methyl)-imino)-3-((2-(3-fluorophenyl)-pyrrolidine)-1-carbonyl)-erythromycin A]",0.25,2,<0.06,<0.06,<0.06
"CC[C@H]1OC(=O)[C@H](C)[C@@H](OC(=O)N2CCCC2)[C@H](C)[C@@H](O[C@@H]2O[C@H](C)C[C@H](N(C)C)[C@H]2O)[C@](C)(OC)C[C@@H](C)C(=O)[C@H](C)[C@H]2N(CC3CN(C(=O)c4cccc5cccnc45)C3)C(=O)O[C@]12C [Example 5.07, 2-R^2: quinoline-8-carboxyl; R^#: pyrrolidin-1-yl]",16,4,<0.06,0.25,<0.06
"CC[C@H]1OC(=O)[C@H](C)[C@@H](OC(=O)N2CCCC2)[C@H](C)[C@@H](O[C@@H]2O[C@H](C)C[C@H](N(C)C)[C@H]2O)[C@](C)(OC)C[C@@H](C)C(=O)[C@H](C)[C@H]2N(CC3CN(Cc4cccc5cccnc45)C3)C(=O)O[C@]12C [Example 5.08, 2-R^2: (quinolin-8-yl)methyl; R^#: pyrrolidin-1-yl]",16,2,<0.06,0.25,<0.06
"CC[C@H]1OC(=O)[C@H](C)[C@@H](OC(=O)N2CCCC2)[C@H](C)[C@@H](O[C@@H]2O[C@H](C)C[C@H](N(C)C)[C@H]2O)[C@](C)(OC)C[C@@H](C)C(=O)[C@H](C)[C@H]2N(CC3CN(Cc4nccc5ccccc45)C3)C(=O)O[C@]12C [Example 5.09, 2-R^2: (isoquinolin-1-yl)methyl; R^#: pyrrolidin-1-yl]",64,2,<0.06,1,<0.06
"CC[C@H]1OC(=O)[C@H](C)[C@@H](OC(=O)N2CCCC2)[C@H](C)[C@@H](O[C@@H]2O[C@H](C)C[C@H](N(C)C)[C@H]2O)[C@](C)(OC)C[C@@H](C)C(=O)[C@H](C)[C@H]2N(CC3CN(Cc4c[nH]c5ncccc45)C3)C(=O)O[C@]12C [Example 5.10, 3-descladinosyl-11,12-dideoxy-6-O-methyl-12,11-(oxycarbonyl-(1-((1H-pyrrolo[2,3-b]pyridin-3-yl)-methyl)-(azetidin-3-yl)-methyl)-imino)-3-(pyrrolidine-1-carbonyl)-erythromycin A]",2,1,<0.06,<0.06,<0.06
"CC[C@H]1OC(=O)[C@H](C)[C@@H](OC(=O)N2CCCC2)[C@H](C)[C@@H](O[C@@H]2O[C@H](C)C[C@H](N(C)C)[C@H]2O)[C@](C)(OC)C[C@@H](C)C(=O)[C@H](C)[C@H]2N(CC3CN(Cc4nc5ccccc5[nH]4)C3)C(=O)O[C@]12C [Example 5.11, 2-R^2: (1H-benzo[d]imidazol-2-yl)methyl; R^#: pyrrolidin-1-yl]",32,1,<0.06,1,<0.06
"CC[C@H]1OC(=O)[C@H](C)[C@@H](OC(=O)N2CCCC2)[C@H](C)[C@@H](O[C@@H]2O[C@H](C)C[C@H](N(C)C)[C@H]2O)[C@](C)(OC)C[C@@H](C)C(=O)[C@H](C)[C@H]2N(CC3CN(Cc4nc5ccccc5s4)C3)C(=O)O[C@]12C [Example 5.14, 2-R^2: (benzo[d]thiazol-2-yl)methyl; R^#: pyrrolidin-1-yl]",32,4,<0.06,4,<0.06

# — patent US7462600B2, “Macrolides” (Pfizer Inc, priority 2004, dated 2008)
